Results taken from patent publication US20020016346A1, “Method for enhancing outflow of aqueous humor in treatment of glaucoma” (The Regents University of California, a California …, priority 1994, published 2002).
Like-named read-outs stand apart in the source and are kept apart here.

Key:
[1] = tested on: Na+—K+—2Cl− cotransporter
Protocol: Thus, studies were conducted to determine the magnitude of net K uptake mediated by the TM cell Na^+—K^+—2Cl^− cotransporter. For determination of the net potassium uptake, the potassium contents of TM cells were evaluated by atomic absorption spectrophotometry, as described previously by O'Donnell, M. E. (supra, 1993). Briefly, cells were preincubated in 10 μM bumetanide for 5 minutes, and assayed as described above, with the exception that no ^86Rb was present during the assay. Cell ionic contents were extracted with 5% trichloroacetic acid following removal of extracellular potassium by washing the monolayers with ice-cold 0.1 M MgCl2.

[2] = tested on: bovine TM cells; assay: TM cell volume by electronic cell sizing (Coulter Counter); assay type: cell-based
Protocol: By the second method, TM cells were trypsinized briefly in Ca-free medium, then rinsed with medium containing trypsin inhibitor and suspended in Hepes MEM. Mean cell volumes were then analyzed by electronic cell sizing on a Coulter Counter™ […] (Model ZM), with channelizer (C256), using at least 50,000 cells per data point and an orifice diameter of 140 μm. Aliquots of suspended cells were diluted into Hepes MEM containing the tonicity and/or agents to be evaluated. Mean cell volumes of each suspension aliquot were followed over time, starting at 1 minute after addition of cells to the assay media. Cell suspensions were maintained at 37° C. throughout the assay period. Absolute volumes (picoliters/cell) were calculated from distribution curves of cell diameter, using a standard curve generated by polystyrene latex beads of known diameter.
In order to determine whether the Na—K—Cl cotransporter of TM cells may play a role in restoration of intracellular volume following hypertonicity-induced cell shrinkage, we evaluated the effect of hypertonicity on TM cell volume and Na^+—K^+—2Cl^− cotransport activity. […] The intracellular volume of the cells then increased over a slower time course, with volume recovering to approximately 84% by 33 minutes as shown in FIG. 3A.

[3] = tested on: eye of a rabbit; assay: Intra-ocular pressure in rabbits after subconjunctival injection; assay type: in vivo
Protocol: Male albino New Zealand rabbits weighing≧2 Kg were used for in vivo experiments performed under various active animal use protocols approved by the Institutional Animal Care and Use Committee at UC Davis. Animals were sedated with an intravenous dose of Napentabarbitol, 1-2 mg/Kg to permit their handling and frequent measurement of intra-ocular pressure (IOP). Topical anesthesia consisting of Proparacaine HCl (Alcaine™) was used for IOP measurements. A pneumatonometer (Mentor O & O Classic Model 30 Penumatonometer™, Norwell, Mass.) calibrated to a known (25 mmHg) pressure prior to each experiment was used for all IOP measurements. This model of Pneumatonometer provides a readout of standard deviation of each measurement; only measurements with a standard deviation of≦1 mmHg were accepted and most were less than 0.5 mmHg. Following sedation, IOP measurements were carried out over at least 30 minutes to assure that a stable baseline IOP was present.
Drugs and/or vehicle was administered to one eye of each animal via subconjunctival injection in order to bypass any barriers to drug penetration, such as an intact corneal and conjunctival epithelium and to achieve rapid and high concentrations of drug, bypassing epithelial barriers. The contralateral eye treated only with vehicle served as a control for each animal. Two syringes were prepared for each experiment, one containing drug and vehicle, the other containing only vehicle. […] Injections raised a prominent bleb, confirming subconjunctival placement of the drug or vehicle. This bleb then smoothed out over about ten minutes, indicating diffusion of the drug or vehicle throughout the subconjunctival space.
Measurements of intra-ocular pressure were taken at various intervals following the subconjunctival administration of the drug and/or vehicle. IOP in both eyes fluctuated over time reflecting the level of anesthesia. During the course of the experiment, the animal handlers and investigators were masked as to which eve had received the drug or control injection.

CCCCNc1cc(C(=O)O)cc(S(N)(=O)=O)c1Oc1ccccc1 [bumetanide]
bumetanide-sensitive net K uptake ([1]; Cl omitted from the incubation medium, n=8): −2.62±2.82 μmol K/gm protein/min
bumetanide-sensitive net K uptake ([1]; Na omitted from the incubation medium, n=8): 1.71±2.49 μmol K/gm protein/min
bumetanide-sensitive net K uptake ([1]; steady state, 10 μM bumetanide): 7.78=1.98 μmol K/gm protein/min
intracellular volume ([2]; 30 minute exposure, bumetanide 10 μM, ethacrynic acid 1 mM, versus Hepes MEM control): significant reduction
volume recovery after hypertonicity-induced cell shrinkage ([2]; hypertonic (400 mOsm) medium containing bumetanide): greatly attenuated
average IOP lowering effect ([3]; average of two experiments, FIG. 6): over 20%
effect on IOP ([3]; bumetanide 10^−5 M in DMSO, 0.1 cc subconjunctival, first animal): rapid and pronounced and lasted beyond two hours
